The results in this text go back to ChEMBL document CHEMBL3046624, “Synthesis, single crystal X-ray studies and antimicrobial activities of novel Indole barbiturates” (Med Chem Res, 2012).

Common to all, as to assay type: functional, organism-based
Assay [1] has as its system Candida albicans. Nature of the assay: Growth inhibition of Candida albicans at 300 ug/ml by cup-plate method.
Assay [2] concerns Candida albicans. Nature of the assay: Growth inhibition of Candida albicans at 200 ug/ml by cup-plate method.
Assay [3] concerns Candida albicans. The assay can be described thus: Growth inhibition of Candida albicans at 100 ug/ml by cup-plate method.
Assay [4] relates to Saccharomyces cerevisiae. The assay can be described thus: Growth inhibition of Saccharomyces cerevisiae at 300 ug/ml by cup-plate method.
Assay [5] has as its system Saccharomyces cerevisiae. Nature of the assay: Growth inhibition of Saccharomyces cerevisiae at 200 ug/ml by cup-plate method.
In assay [6] the test system is Saccharomyces cerevisiae. The assay can be described thus: Growth inhibition of Saccharomyces cerevisiae at 100 ug/ml by cup-plate method.
Assay [7] concerns Proteus vulgaris. The assay can be described thus: Growth inhibition of Proteus vulgaris at 300 ug/ml by cup-plate method.
For assay [8], the system named is Proteus vulgaris. Nature of the assay: Growth inhibition of Proteus vulgaris at 200 ug/ml by cup-plate method.
The test system of assay [9] is Proteus vulgaris. Nature of the assay: Growth inhibition of Proteus vulgaris at 100 ug/ml by cup-plate method.
The test system of assay [10] is Pseudomonas aeruginosa. Nature of the assay: Growth inhibition of Pseudomonas aeruginosa at 300 ug/ml by cup-plate method.
The subject of assay [11] is Pseudomonas aeruginosa. The assay can be described thus: Growth inhibition of Pseudomonas aeruginosa at 200 ug/ml by cup-plate method.
The test system of assay [12] is Pseudomonas aeruginosa. Nature of the assay: Growth inhibition of Pseudomonas aeruginosa at 100 ug/ml by cup-plate method.
For assay [13], the system named is Staphylococcus aureus. Nature of the assay: Growth inhibition of Staphylococcus aureus at 300 ug/ml by cup-plate method.
The test system of assay [14] is Staphylococcus aureus. The assay can be described thus: Growth inhibition of Staphylococcus aureus at 200 ug/ml by cup-plate method.
In assay [15] the test system is Staphylococcus aureus. The assay can be described thus: Growth inhibition of Staphylococcus aureus at 100 ug/ml by cup-plate method.
In assay [16] the test system is Bacillus subtilis. The assay can be described thus: Growth inhibition of Bacillus subtilis at 300 ug/ml by cup plate method.
The test system of assay [17] is Bacillus subtilis. The assay can be described thus: Growth inhibition of Bacillus subtilis at 200 ug/ml by cup plate method.
Assay [18] concerns Bacillus subtilis. Nature of the assay: Growth inhibition of Bacillus subtilis at 100 ug/ml by cup plate method.
Assay [19] relates to Escherichia coli. The assay can be described thus: Growth inhibition of Escherichia coli at 300 ug/ml by cup-plate method.
For assay [20], the system named is Escherichia coli. The assay can be described thus: Growth inhibition of Escherichia coli at 100 ug/ml by cup-plate method.
For assay [21], the system named is Escherichia coli. The assay can be described thus: Growth inhibition of Escherichia coli at 200 ug/ml by cup-plate method.

Calls of active or inactive are those of the source. No cut-off for these calls is given here.

Regarding `CCn1c(-c2ccccc2)c(C=C2C(=O)NC(=O)NC2=O)c2ccccc21`, the “growth inhibition (GI)” value in assay [1], in [2], in assay [3], in assay [4], in assay [5] and in [6] was “Active” in each case. Further, the “growth inhibition (GI)” value in assay [10], in assay [11], in [12] and in [16] was “Active” throughout. Moreover, the “growth inhibition (GI)” value in assay [7], in [8], in [9], in [13], in [14] and in assay [15] was “inactive” in each case. Further, the “growth inhibition (GI)” value in assay [17], in [18], in assay [19], in assay [20] and in assay [21] was “inactive” each time.

For the compound `CCCCn1c(-c2ccccc2)c(C=C2C(=O)NC(=O)NC2=O)c2ccccc21`, the “growth inhibition (GI)” value in assay [1], in [2], in assay [3], in [7], in assay [8] and in [9] was “Active” each time. Besides, the “growth inhibition (GI)” value in assay [13], in assay [14], in [15], in [16], in assay [17] and in assay [18] was “Active” each time. Also, the “growth inhibition (GI)” value in [19], in assay [20] and in assay [21] was “Active” each time. The “growth inhibition (GI)” value in assay [4], in [5], in assay [6], in assay [10], in [11] and in assay [12] was “inactive” in each case.
